The assay has as its system ATF4 luciferase reporter in HEK293T cells. Nature of the assay: ATF4-Luc assay (ATF4 luciferase reporter, tunicamycin-treated HEK293T cells). In kind it is cell-based, human. The note with it: Homo sapiens, HEK-293T; HEK293T cells carrying the ATF4 luciferase reporter, 1 μg/mL tunicamycin, 7 hours. How it is done:
In order to test exemplary compounds of the invention in a cellular context, a stable VWMD cell line was first constructed. The ATF4 reporter was prepared by fusing the human full-length ATF4 5′-UTR (NCBI Accession No. BC022088.2) in front of the firefly luciferase (FLuc) coding sequence lacking the initiator methionine as described in Sidrauski et al (eLife 2013). The construct was used to produce recombinant retroviruses using standard methods and the resulting viral supernatant was used to transduce HEK293T cells, which were then subsequently selected with puromycin to generate a stable cell line.
HEK293T cells carrying the ATF4 luciferase reporter were plated on polylysine coated 384-well plates (Greiner Bio-one) at 30,000 cells per well. Cells were treated the next day with 1 μg/mL tunicamycin and 200 nM of a compound of Formula (I) for 7 hours. Luminescence was measured using One Glo (Promega) as specified by the manufacturer. Cells were maintained in DMEM with L-glutamine supplemented with 10% heat-inactivated FBS (Gibco) and Antibiotic-Antimycotic solution (Gibco).
Table 2 below summarizes the EC50 data obtained using the ATF4-Luc assay for exemplary compounds of the invention.
As for `O=C(COc1ccc(C(F)(F)F)nc1)NC12CCC(NC(=O)COc3ccc(Cl)c(F)c3)(CC1)CC2` [Compound 101, 2-(4-chloro-3-fluorophenoxy)-N-[4-(2-{[6-(trifluoromethyl)pyridin-3-yl]oxy}acetamido)bicyclo[2.2.2]octan-1-yl]acetamide], the EC50 (commonly the concentration that produces a half-maximal response) was 10 to 50 nM.
`O=C(CCc1ccc(Cl)cc1)NC12CC(NC(=O)COc3ccc(Cl)c(F)c3)(C1)C2` [Compound 102, N-{3-[2-(4-chloro-3-fluorophenoxy)acetamido]bicyclo[1.1.1]pentan-1-yl}-3-(4-chlorophenyl)propanamide]: the EC50 lay within 50 to 250 nM.
The result for `O=C(COc1ccc(Cl)cc1)NC12C3C4C1C1C2C3C41NC(=O)COc1ccc(Cl)cc1` (stereo not shown) [Compound 103, N,N′-(pentacyclo[4.2.0.0^2,50^3,80^4,7]octane-1,4-diyl)bis[2-(4-chlorophenoxy)-acetamide]] reads 10 to 50 nM; that for `O=C(CCn1ncc(Cl)cc1=O)NC12CC(NC(=O)COc3ccc(Cl)c(F)c3)(C1)C2` [Compound 104, N-{3-[2-(4-chloro-3-fluorophenoxy)acetamido]bicyclo[1.1.1]pentan-1-yl}-3-(4-chloro-6-oxopyridazin-1(6H)-yl)propanamide], 250 to 500 nM.
For the compound `O=C(COc1ccc(Cl)c(Cl)c1)NC12CC(NC(=O)COc3cnc(C(F)(F)F)cn3)(C1)C2` [Compound 105, 2-(3,4-dichlorophenoxy)-N-[3-(2-{[5-(trifluoromethyl)pyrazin-2-yl]oxy}acetamido)bicyclo[1.1.1]pentan-1-yl]acetamide], the EC50 lay in the range of 10 to 50 nM.
On to `O=C(COc1ccc(Cl)c(Cl)c1)NC12CC(NC(=O)COc3ccc(Cl)c(Cl)c3)(C1)C2` [Compound 106, N,N′-(bicyclo[1.1.1]pentane-1,3-diyl)bis[2-(3,4-dichlorophenoxy)acetamide]], for which the EC50 is below 10 nM.
The result for `O=C(COc1ccc(Cl)c(F)c1)NC12CC(NC(=O)COc3cnc(C(F)(F)F)cn3)(C1)C2` [Compound 107, 2-(4-chloro-3-fluorophenoxy)-N-[3-(2-{[5-(trifluoromethyl)pyrazin-2-yl]oxy}acetamido)bicyclo[1.1.1]pentan-1-yl]acetamide] reads 50 to 250 nM.
On to `O=C(COc1ccc(Cl)c(F)c1)NC12CC(NC(=O)COc3ccc4cn[nH]c4c3)(C1)C2` [Compound 108, 2-(4-chloro-3-fluorophenoxy)-N-(3-{2-[(1H-indazol-6-yl)oxy]acetamido}-bicyclo[1.1.1]pentan-1-yl)acetamide], for which the EC50 lay within 10 to 50 nM.
As to `O=C(COc1ccc2cn[nH]c2c1)NC12CC(NC(=O)COc3ccc4cn[nH]c4c3)(C1)C2` [Compound 109, N,N′-(bicyclo[1.1.1]pentane-1,3-diyl)bis{2-[(1H-indazol-6-yl)oxy]acetamide}], the EC50 was in the range of 500 to 2000 nM.
Regarding `Cc1noc2cc(OCC(=O)NC34CC(NC(=O)COc5ccc(Cl)c(F)c5)(C3)C4)ccc12` [Compound 110, 2-(4-chloro-3-fluorophenoxy)-N-(3-{2-[(3-methyl-1,2-benzoxazol-6-yl)oxy]acetamido}bicyclo[1.1.1]pentan-1-yl)acetamide], the EC50 lay within 500 to 2000 nM.
Take `O=C(COc1ccc(Cl)c(F)c1)NC12CC(NC(=O)COc3cc(F)c4cn[nH]c4c3)(C1)C2` [Compound 111, 2-(4-chloro-3-fluorophenoxy)-N-(3-{2-[(4-fluoro-1H-indazol-6-yl)oxy]acetamido}-bicyclo[1.1.1]pentan-1-yl)acetamide]: the concentration for a half-maximal effect (EC50) was below 10 nM.
`O=C(COc1ccc(Cl)cc1)NC12CC(NCCOc3ccc(Cl)cc3)(C1)C2` [Compound 113, 2-(4-chlorophenoxy)-N-(3-{[2-(4-chlorophenoxy)ethyl]amino}bicyclo-[1.1.1]pentan-1-yl)acetamide]: the EC50 was 50 to 250 nM.
In the case of `Cc1cccc(OCC(=O)NC23CC(NC(=O)COc4ccc(Cl)cc4)(C2)C3)c1` [Compound 114, 2-(4-chlorophenoxy)-N-{3-[2-(3-methylphenoxy)acetamido]bicyclo[1.1.1]-pentan-1-yl}acetamide], the EC50 is 10 to 50 nM.
The result for `Cc1ccc(OCC(=O)NC23CC(NC(=O)COc4ccc(Cl)cc4)(C2)C3)cc1` [Compound 115, 2-(4-chlorophenoxy)-N-{3-[2-(4-methylphenoxy)acetamido]bicyclo-[1.1.1]pentan-1-yl}acetamide] reads 50 to 250 nM.
Regarding `Cc1cc(OCC(=O)NC23CC(NC(=O)COc4ccc(Cl)cc4)(C2)C3)ccc1Cl` [Compound 116, 2-(4-chloro-3-methylphenoxy)-N-{3-[2-(4-chlorophenoxy)acetamido]bicyclo-[1.1.1]pentan-1-yl}acetamide], the EC50 was below 10 nM.
Take `O=C(COc1ccc(Cl)cc1)NC12CC(NC(=O)COc3ccc(Cl)c(Cl)c3)(C1)C2` [Compound 117, 2-(4-chlorophenoxy)-N-{3-[2-(3,4-dichlorophenoxy)acetamido]bicyclo-[1.1.1]pentan-1-yl}acetamide]: the EC50 was below 10 nM.
For `O=C(COc1ccc(Cl)cc1)NC12CC(NC(=O)COc3cccc(Cl)c3)(C1)C2` [Compound 118, 2-(4-chlorophenoxy)-N-{3-[2-(3-chlorophenoxy)acetamido]bicyclo-[1.1.1]pentan-1-yl}acetamide], the EC50 is 10 to 50 nM.
`O=C(COc1ccc(Cl)cc1)NC12CC(NC(=O)COc3cccc(F)c3)(C1)C2` [Compound 119, 2-(4-chlorophenoxy)-N-{3-[2-(3-fluorophenoxy)acetamido]-bicyclo[1.1.1]pentan-1-yl}acetamide]: the EC50 was in the range of 50 to 250 nM.
As for `O=C(COc1ccc(F)cc1)NC12CC(NC(=O)COc3ccc(Cl)cc3)(C1)C2` [Compound 120, 2-(4-chlorophenoxy)-N-{3-[2-(4-fluorophenoxy)acetamido]bicyclo-[1.1.1]pentan-1-yl}acetamide], the EC50 is 10 to 50 nM.
The figure for `O=C(COc1ccc(Cl)c(F)c1)NC12CC(NC(=O)COc3ccc(Cl)c(Cl)c3)(C1)C2` [Compound 121, 2-(4-chloro-3-fluorophenoxy)-N-{3-[2-(3,4-dichlorophenoxy)acetamido]-bicyclo[1.1.1]pentan-1-yl}acetamide] is below 10 nM; for `O=C(COc1ccc(Cl)c(Cl)c1)NC12CC(NC(=O)COc3ccc(Cl)cc3F)(C1)C2` [Compound 122, 2-(4-chloro-2-fluorophenoxy)-N-{3-[2-(3,4-dichlorophenoxy)acetamido]-bicyclo[1.1.1]pentan-1-yl}acetamide] it is below 10 nM; for `O=C(COc1ccc(Cl)c(Cl)c1)NC12CC(NCCOc3ccc(Cl)cc3F)(C1)C2` [Compound 123, N-(3-{[2-(4-chloro-2-fluorophenoxy)ethyl]amino}bicyclo[1.1.1]pentan-1-yl)-2-(3,4-dichlorophenoxy)acetamide] it is 10 to 50 nM.
As for `O=C(COc1ccc(Cl)c(Cl)c1)NC12CC(NCCOc3ccc(Cl)c(F)c3)(C1)C2` [Compound 124, N-(3-{[2-(4-chloro-3-fluorophenoxy)ethyl]amino}bicyclo[1.1.1]pentan-1-yl)-2-(3,4-dichlorophenoxy)acetamide], the EC50 lay in the range of 10 to 50 nM.
Take `O=C(COc1ccc(Cl)c(Cl)c1)NC12CC(NCCOc3ccc(Cl)c(Cl)c3)(C1)C2` [Compound 125, 2-(3,4-dichlorophenoxy)-N-(3-{[2-(3,4-dichlorophenoxy)ethyl]amino}-bicyclo[1.1.1]pentan-1-yl)acetamide]: the EC50 was below 10 nM.
As to `COc1cc(OCC(=O)NC23CC(NC(=O)COc4ccc(Cl)c(F)c4)(C2)C3)ccc1Cl` [Compound 126, 2-(4-chloro-3-fluorophenoxy)-N-{3-[2-(4-chloro-3-methoxyphenoxy)acetamido]-bicyclo[1.1.1]pentan-1-yl}acetamide], the EC50 is below 10 nM.
With `CS(=O)(=O)c1ccc(OCC(=O)NC23CC(NC(=O)COc4ccc(Cl)c(F)c4)(C2)C3)cc1` [Compound 127, 2-(4-chloro-3-fluorophenoxy)-N-(3-{2-[4-(methanesulfonyl)-phenoxy]acetamido}-bicyclo[1.1.1]pentan-1-yl)acetamide], the EC50 was in the range of 500 to 2000 nM.
As for `Cc1cccc(COCC(=O)NC23CC(NC(=O)COc4ccc(Cl)c(F)c4)(C2)C3)n1` [Compound 128, 2-(4-chloro-3-fluorophenoxy)-N-(3-{2-[(6-methylpyridin-2-yl)methoxy]acetamido}bicyclo[1.1.1]pentan-1-yl)acetamide], the EC50 lay within 500 to 2000 nM.
In the case of `O=C(COCc1ccc(Cl)cc1)NC12CC(NC(=O)COc3ccc(Cl)c(F)c3)(C1)C2` [Compound 130, 2-(4-chloro-3-fluorophenoxy)-N-(3-{2-[(4-chlorophenyl)methoxy]acetamido}-bicyclo[1.1.1]pentan-1-yl)acetamide], the EC50 is 10 to 50 nM.
In the case of `O=C(COCc1cccc(Cl)c1)NC12CC(NC(=O)COc3ccc(Cl)c(F)c3)(C1)C2` [Compound 131, 2-(4-chloro-3-fluorophenoxy)-N-(3-{2-[(3-chlorophenyl)methoxy]acetamido}-bicyclo[1.1.1]pentan-1-yl)acetamide], the EC50 is 10 to 50 nM.
Take `O=C(COCCc1cccc(F)c1)NC12CC(NC(=O)COc3ccc(Cl)c(F)c3)(C1)C2` [Compound 132, 2-(4-chloro-3-fluorophenoxy)-N-(3-{2-[2-(3-fluorophenyl)ethoxy]acetamido}-bicyclo[1.1.1]pentan-1-yl)acetamide]: the EC50 was 50 to 250 nM.
With `O=C(COCCc1cccc(Cl)c1)NC12CC(NC(=O)COc3ccc(Cl)c(F)c3)(C1)C2` [Compound 133, 2-(4-chloro-3-fluorophenoxy)-N-(3-{2-[2-(3-chlorophenyl)ethoxy]acetamido}-bicyclo[1.1.1]pentan-1-yl)acetamide], the EC50 lay within 50 to 250 nM.

(Values after patent US20240166652A1, “MODULATORS OF THE INTEGRATED STRESS PATHWAY” (Calico Life Sciences LLC, priority 2017, published 2024).)
